Measurements published in patent US10562878B2, “Cycloalkylamines as monoamine reuptake inhibitors” (Sunovion Pharmaceuticals Inc., priority 2006, dated 2020).
Like-named read-outs stand apart in the source and are kept apart here.

Columns and labels:
[1] = target: human norepinephrine reuptake transporter (Homo sapiens (Human), UniProt P23975); conditions: cited from earlier work
[2] = target: rat serotonin (5-HT) reuptake transporter (Rattus norvegicus (Rat), UniProt P31652); assay: Serotonin functional uptake assay, rat synaptosomes; format: biochemical; conditions: read-out: rSERT IC50
[3] = target: human serotonin transporter (Homo sapiens (Human), UniProt P31645); assay: Serotonin functional uptake assay, recombinant human transporter in HEK-293 cells; format: cell-based; conditions: Human serotonin transporter uptake; read-out: hSERT IC50
[4] = target: rat dopamine reuptake transporter (Rattus norvegicus (Rat), UniProt P23977); assay: Dopamine functional uptake assay, rat striatal synaptosomes; format: biochemical; conditions: read-out: rDAT IC50
[5] = target: human dopamine transporter (Homo sapiens (Human), UniProt Q01959); assay: Dopamine functional uptake assay, recombinant human transporter in CHO-K1 or HEK293 cells; format: cell-based; conditions: read-out: hDAT IC50
[6] = target: 5-HT Transporter (SERT) sites in mouse brain (Mus musculus (Mouse), UniProt Q60857); assay: Ex vivo [3H] citalopram binding to SERT sites in mouse brain after oral dosing; conditions: mice, 60 min after treatment
[7] = target: DA Transporter (DAT) sites in mouse brain (Mus musculus (Mouse), UniProt Q61327); assay: Ex vivo [3H] WIN 35428 binding to DAT sites in mouse brain after oral dosing; conditions: mice, 60 min after treatment
[8] = test system: mice; assay: Mouse tail suspension test; format: in vivo
[9] = test system: mice; assay: Mouse locomotor activity; format: in vivo
[10] = test system: Rats; assay: Rat forced swim test; format: in vivo
[11] = target: T1, Norepinephrine Transporter (NET) sites in mouse brain (Mus musculus (Mouse), UniProt O55192); conditions: mice, 60 min after treatment
[12] = in vivo; cited from earlier work
[13] = target: T1, Norepinephrine Transporter (NET) sites in mouse brain; assay: in vivo; conditions: po, read-out: NET % Transporter Occupancy

Chain of human dopamine transporter (Q01959 whole entry): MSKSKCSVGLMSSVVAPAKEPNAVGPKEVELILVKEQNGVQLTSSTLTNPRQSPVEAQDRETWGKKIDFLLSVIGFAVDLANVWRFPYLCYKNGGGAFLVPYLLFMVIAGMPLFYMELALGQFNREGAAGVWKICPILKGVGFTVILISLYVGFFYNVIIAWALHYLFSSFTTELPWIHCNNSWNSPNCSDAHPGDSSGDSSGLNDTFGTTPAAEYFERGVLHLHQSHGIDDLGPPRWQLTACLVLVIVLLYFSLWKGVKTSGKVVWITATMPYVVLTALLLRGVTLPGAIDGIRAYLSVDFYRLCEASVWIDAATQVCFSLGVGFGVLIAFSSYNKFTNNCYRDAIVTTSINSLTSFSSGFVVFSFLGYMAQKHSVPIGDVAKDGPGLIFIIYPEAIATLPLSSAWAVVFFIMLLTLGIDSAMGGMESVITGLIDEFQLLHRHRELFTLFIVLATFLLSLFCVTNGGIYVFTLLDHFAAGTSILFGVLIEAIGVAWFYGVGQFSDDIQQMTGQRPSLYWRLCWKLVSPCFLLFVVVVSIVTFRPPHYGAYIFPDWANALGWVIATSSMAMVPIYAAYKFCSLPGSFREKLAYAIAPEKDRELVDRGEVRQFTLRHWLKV
Chain of human serotonin transporter (P31645 whole entry): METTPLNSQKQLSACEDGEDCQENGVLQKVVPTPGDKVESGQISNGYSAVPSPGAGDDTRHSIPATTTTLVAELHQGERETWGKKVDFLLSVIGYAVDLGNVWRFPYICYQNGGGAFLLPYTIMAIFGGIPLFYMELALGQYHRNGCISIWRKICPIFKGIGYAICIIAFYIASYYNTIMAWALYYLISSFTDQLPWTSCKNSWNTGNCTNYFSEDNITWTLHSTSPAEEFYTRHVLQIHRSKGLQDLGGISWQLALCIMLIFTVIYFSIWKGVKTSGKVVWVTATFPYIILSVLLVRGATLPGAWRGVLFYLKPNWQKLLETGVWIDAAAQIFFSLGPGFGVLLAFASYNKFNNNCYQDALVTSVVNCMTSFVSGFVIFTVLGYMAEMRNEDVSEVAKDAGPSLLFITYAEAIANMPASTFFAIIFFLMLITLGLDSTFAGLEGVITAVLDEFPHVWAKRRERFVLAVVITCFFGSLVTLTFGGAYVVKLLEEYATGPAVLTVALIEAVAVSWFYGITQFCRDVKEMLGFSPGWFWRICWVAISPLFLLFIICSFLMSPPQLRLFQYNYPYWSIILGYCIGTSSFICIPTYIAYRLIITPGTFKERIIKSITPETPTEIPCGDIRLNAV

| Structure (SMILES) | IC50 [2] [nM] | IC50 [4] [nM] | IC50 [5] [nM] | SERT Mean Specific Binding ± S.E.M. ([6]; 1 mg/kg PO) [dpm] | SERT Mean Specific Binding ± S.E.M. ([6]; 3 mg/kg PO) [dpm] | SERT Mean Specific Binding ± S.E.M. ([6]; 10 mg/kg PO) [dpm] | SERT Mean Specific Binding ± S.E.M. ([6]; 30 mg/kg PO) [dpm] | DAT Mean Specific Binding ± S.E.M. ([7]; 1 mg/kg PO) [dpm] | DAT Mean Specific Binding ± S.E.M. ([7]; 3 mg/kg PO) [dpm] | DAT Mean Specific Binding ± S.E.M. ([7]; 10 mg/kg PO) [dpm] | DAT Mean Specific Binding ± S.E.M. ([7]; 30 mg/kg PO) [dpm] | Mouse Tail Suspension Mean Immobility Time ± S.E.M. ([8]; 10 mg/kg PO) | Mouse Tail Suspension Mean Immobility Time ± S.E.M. ([8]; 30 mg/kg PO) | NET Mean Specific Binding ± S.E.M. ([11]; 1 mg/kg PO) [dpm] | NET Mean Specific Binding ± S.E.M. ([11]; 3 mg/kg PO) [dpm] | NET Mean Specific Binding ± S.E.M. ([11]; 10 mg/kg PO) [dpm] | NET Mean Specific Binding ± S.E.M. ([11]; 30 mg/kg PO) [dpm] | further results |
| --- | --- | --- | --- | --- | --- | --- | --- | --- | --- | --- | --- | --- | --- | --- | --- | --- | --- | --- |
| COC(=O)C(c1ccccc1)C1CCCCN1 (centres unmarked) [methylphenidate] | – | – | – | – | – | – | – | – | – | – | – | – | – | – | – | – | – | reported potency (IC50 or Ki), inhibition of human norepinephrine reuptake transporter [1]: 38 nM |
| CN(C)C[C@]1(c2ccc(Cl)c(Cl)c2)CC[C@H](O)CC1 [Compound 288, (1s,4s)-4-(3,4-dichlorophenyl)-4-((dimethylamino)methyl)-cyclohexanol] | 67 | 370 | 22 | – | – | – | – | – | – | – | – | – | – | – | – | – | – | IC50 [3]: 84 nM |
| CN(C)C[C@]1(c2ccc3ccccc3c2)CC[C@](C)(O)CC1 [Compound 225, (1s,4s)-4-((dimethylamino)methyl)-1-methyl-4-(naphthalen-2-yl)cyclohexanol] | – | – | 167 | 3842 ± 152 | 2118 ± 139 | 904 ± 35 | 414 ± 37 | 19787 ± 3338 | 21666 ± 3698 | 18872 ± 2775 | 14618 ± 1209 | 137.8 ± 5.2 | 136.3 ± 2.5 | 1170 ± 68 | 813 ± 64 | 393 ± 21 | 230 ± 33 | Mouse Locomotor Activity Total Distance Traveled ± S.E.M. ([9]; 0.3 mg/kg PO): 519.5 ± 56.4; Mouse Locomotor Activity Total Distance Traveled ± S.E.M. ([9]; 1 mg/kg PO): 423.4 ± 62.3; Rat Forced Swim Climbing (Means ± S.E.M.) ([10]; 3 mg/kg PO): 8.4 ± 1.7; Rat Forced Swim Immobility (Means ± S.E.M.) ([10]; 3 mg/kg PO): 50.8 ± 1.8; Rat Forced Swim Swimming (Means ± S.E.M.) ([10]; 3 mg/kg PO): 0.8 ± 0.3; Rat Forced Swim Climbing (Means ± S.E.M.) ([10]; 10 mg/kg PO): 11.1 ± 2.7; Rat Forced Swim Immobility (Means ± S.E.M.) ([10]; 10 mg/kg PO): 47.6 ± 3.0; Rat Forced Swim Swimming (Means ± S.E.M.) ([10]; 10 mg/kg PO): 1.2 ± 0.6; Rat Forced Swim Climbing (Means ± S.E.M.) ([10]; 30 mg/kg PO): 25.0 ± 4.6; Rat Forced Swim Immobility (Means ± S.E.M.) ([10]; 30 mg/kg PO): 33.4 ± 4.8; Rat Forced Swim Swimming (Means ± S.E.M.) ([10]; 30 mg/kg PO): 1.1 ± 0.5 |
| Clc1ccc(C23CNCC2C3)cc1Cl (single isomer, unassigned) [DOV 21,947, H-1-(3,4-dichlorophenyl)-3-azabicyclo[3.1.0]hexane] | – | – | – | – | – | – | – | – | – | – | – | – | – | – | – | – | – | immobility in the tail suspension test [12]: dose-dependent reduction in immobility |
| CN(C)C[C@]1(c2ccc3ccccc3c2)CCCC[C@H]1O (relative stereo) [164 E1, trans-2-((dimethylamino)methyl)-2-(naphthalen-2-yl)cyclohexanol] | – | – | – | 2796 ± 133 | 2273 ± 74 | 783 ± 61 | 271 ± 50 | 23574 ± 1313 | 18002 ± 1516 | 17727 ± 2871 | 15630 ± 1085 | 162.1 ± 4.6 | 155.3 ± 7.8 | 1122 ± 58 | 1046 ± 23 | 903 ± 48 | 610 ± 59 | receptor occupancy at 1 mg/kg ([6]; mouse, 1 mg/kg PO): 20%; receptor occupancy at 3 mg/kg ([6]; mouse, 3 mg/kg PO): 35%; receptor occupancy at 10 mg/kg ([6]; mouse, 10 mg/kg PO): 78%; receptor occupancy at 30 mg/kg ([6]; mouse, 30 mg/kg PO): 92%; receptor occupancy at 1 mg/kg ([7]; mouse, 1 mg/kg PO): -11%; receptor occupancy at 3 mg/kg ([7]; mouse, 3 mg/kg PO): 16%; receptor occupancy at 10 mg/kg ([7]; mouse, 10 mg/kg PO): 17%; receptor occupancy at 30 mg/kg ([7]; mouse, 30 mg/kg PO): 27%; Mouse Locomotor Activity Total Distance Traveled ± S.E.M. ([9]; 10 mg/kg PO): 210.3 ± 40.4; receptor occupancy at 1 mg/kg [13]: -8%; receptor occupancy at 3 mg/kg [13]: -1%; receptor occupancy at 10 mg/kg [13]: 13%; receptor occupancy at 30 mg/kg [13]: 41% |
| CN(C)C[C@]1(c2ccc(Cl)c(Cl)c2)CCC[C@H](O)C1 (single isomer, unassigned) [190 E2, Cis-3-(3,4-dichlorophenyl)-3-((dimethylamino)methyl)cyclohexanol] | 120 | 45 | 3 | – | – | – | – | – | – | – | – | – | – | – | – | – | – | – |
